ChEMBL document CHEMBL2074502, “Effect of furanocoumarin derivatives in grapefruit juice on the uptake of vinblastine by Caco-2 cells and on the activity of cytochrome P450 3A4” (Br J Pharmacol, 2000)

target: ATP-dependent translocase ABCB1 (Homo sapiens, UniProt P08183); assay: TP_TRANSPORTER: increase uptake (Vinblastine: 0.01 uM) in Caco-2 cells; format: functional, cell-based
Sequence (P08183 whole entry): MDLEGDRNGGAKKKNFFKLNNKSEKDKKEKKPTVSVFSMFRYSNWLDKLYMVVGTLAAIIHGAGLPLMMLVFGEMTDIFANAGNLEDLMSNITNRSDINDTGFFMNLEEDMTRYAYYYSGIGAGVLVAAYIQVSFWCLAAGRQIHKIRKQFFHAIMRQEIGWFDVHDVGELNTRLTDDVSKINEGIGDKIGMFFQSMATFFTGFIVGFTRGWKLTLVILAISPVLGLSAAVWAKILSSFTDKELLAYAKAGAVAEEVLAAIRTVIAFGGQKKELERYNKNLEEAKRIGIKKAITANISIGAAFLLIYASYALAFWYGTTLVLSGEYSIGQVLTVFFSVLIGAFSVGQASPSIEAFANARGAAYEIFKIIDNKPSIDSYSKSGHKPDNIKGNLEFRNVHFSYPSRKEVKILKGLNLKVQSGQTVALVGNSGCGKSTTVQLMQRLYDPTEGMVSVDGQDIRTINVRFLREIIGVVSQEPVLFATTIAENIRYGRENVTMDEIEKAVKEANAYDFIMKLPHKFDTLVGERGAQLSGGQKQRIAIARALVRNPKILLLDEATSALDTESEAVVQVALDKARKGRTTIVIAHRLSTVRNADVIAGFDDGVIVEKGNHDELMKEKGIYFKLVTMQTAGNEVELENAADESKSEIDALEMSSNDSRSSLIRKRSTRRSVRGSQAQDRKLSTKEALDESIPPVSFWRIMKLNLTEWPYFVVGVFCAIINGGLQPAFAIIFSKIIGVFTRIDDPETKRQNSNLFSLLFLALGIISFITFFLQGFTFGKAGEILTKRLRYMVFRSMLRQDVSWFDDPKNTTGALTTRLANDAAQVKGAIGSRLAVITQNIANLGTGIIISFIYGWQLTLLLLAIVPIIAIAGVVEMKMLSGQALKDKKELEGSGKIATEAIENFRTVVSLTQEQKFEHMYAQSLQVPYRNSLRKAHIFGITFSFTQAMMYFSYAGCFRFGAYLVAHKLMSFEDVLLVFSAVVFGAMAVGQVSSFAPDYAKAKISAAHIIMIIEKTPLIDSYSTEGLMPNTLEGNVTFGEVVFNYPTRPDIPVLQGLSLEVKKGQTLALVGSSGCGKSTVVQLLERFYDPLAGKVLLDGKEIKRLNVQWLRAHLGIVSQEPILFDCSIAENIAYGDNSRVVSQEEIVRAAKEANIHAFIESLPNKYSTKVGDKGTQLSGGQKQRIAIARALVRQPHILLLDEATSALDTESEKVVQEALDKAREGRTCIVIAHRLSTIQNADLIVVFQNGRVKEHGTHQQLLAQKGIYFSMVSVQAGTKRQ

In order of rising EC200:
1. CC(C)=CCC/C(C)=C/COc1c2ccoc2cc2oc(=O)ccc12 [BERGAMOTTIN]  0.035 µM
2. C/C(=C\COc1c2ccoc2cc2oc(=O)ccc12)CCC(OC(C)(C)C(O)CC/C(C)=C/COc1c2ccoc2cc2oc(=O)ccc12)C(C)(C)O (stereo not given) [FC726]  0.035 µM
3. C/C(=C\COc1c2ccoc2cc2oc(=O)ccc12)CC[C@@H](O)C(C)(C)O  0.04 µM
4. COc1c2ccoc2cc2oc(=O)ccc12 [BERGAPTEN]  0.05 µM
5. O=c1ccc2c(O)c3ccoc3cc2o1 [BERGAPTOL]  0.3 µM
